This note sets out measurements from patent US10562848B2, “Inhibitors of TNF superfamily costimulatory interactions and methods for uses of the same” (UNIVERSITY OF MIAMI, priority 2015, dated 2020).

The target of one assay is T1, human CD40-CD40L (Homo sapiens, UniProt P29965).
T1 construct: purchased Enzo Life Sciences (San Diego, Calif.)
T1 sequence (P29965 116-261 limits assumed): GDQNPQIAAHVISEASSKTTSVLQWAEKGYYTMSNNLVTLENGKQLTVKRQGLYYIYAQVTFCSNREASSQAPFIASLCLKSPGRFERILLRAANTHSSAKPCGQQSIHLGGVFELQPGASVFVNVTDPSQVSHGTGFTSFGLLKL
Nature of the assay: Cell-free ELISA-type CD40-CD40L binding inhibition assay. Here is the method: Compounds according to the disclosure were assessed for their ability to inhibit the binding of tagged ligands to plate-bound receptors using ELISA-type 96-well plate-based cell-free assays as described in the literature (see Margolles-Clark et al, J Mol Med 87:1133-1143 (2009); Margolles-Clark et al., Chem Biol Drug Des 76:305-313 (2010); Song et al., Br J Pharmacol 171:4955-4969 (2014); and Ganesan et al., Biochem Pharmacol 81:810-818 (2011)).
Recombinant receptors (hCD40:Fc, TNF-R1:Fc) and tagged ligands (hCD154, MegaCD40L, and TNF-α), were obtained from Enzo Life Sciences (San Diego, Calif.). Microtiter plates (Nunc F Maxisorp; 96-well) were coated overnight at 4° C. with 100 μL/well of Fc chimeric receptors diluted in PBS 7.2. This was followed by blocking with 200 μL/well of blocking solution (PBS 7.2, 0.05% Tween-20, 1% BSA) for 1 hour at room temperature. […] Either anti-FLAG-HRP or streptavidin-HRP conjugate was used to detect the bound FLAG-tagged or biotinylated ligand, respectively. Plates were washed three times before the addition of 120 μL/well of HRP substrate TMB (3, 3′, 5, 5′-tetramethylbenzidine) and kept in the dark for 15-30 min. The reaction was stopped using 30 μL 1M H2SO4, and the absorbance was read at 450 nm. Stock solutions of compounds at 10 mM in DMSO were used.
Typical concentrations used were as follows—receptors: 0.3 μg/mL for CD40, TNF-R1, and RANK; 0.6 μg/mL for BAFF-R, OX40, and 4-1BB; and 2 μg/mL for EGF-R-ligands: 0.02 μg/mL for CD40L, TNFα, and RANKL; 0.2 μg/ml for BAFF, OX40L, 4-1BBL; and 0.3 μg/mL for EGF. Assays were done in duplicate or triplicate per plate and repeated at least three times; the averaged data were normalized and used for data fitting and analysis. Binding data were fitted using the standard log inhibitor versus response model in GraphPad Prism to determine the corresponding IC50 values.
Background: In an ELISA, binding on a coated surface is turned into a signal by an enzyme label.

Assay [1] relates to CD40L-induced MHC-II expression in human THP-1 cells. Nature of the assay: cells. The following applies: for IC50: Homo sapiens, THP-1, 48 h, read-out: IC50, inhibition of CD40L-induced THP-1 activation. Here is the method: As a further assessment, the ability of the compounds of the disclosure to inhibit the CD40L-induced activation of THP-1 cells, which can serve as surrogate dendritic cells, was evaluated using an assay as described previously (see Margolles-Clark et al, J Mol Med 87:1133-1143 (2009)).
THP-1 human myeloid cells obtained from American Type Culture Collection (ATCC; Manasses, Va.) were cultivated in RPMI media 1640 supplemented with 10% FBS, 100 U/mL penicillin, and streptomycin 100 μg/mL to a density of 1×10^6 cells/mL. Cells were centrifuged and cultured in the same medium without FBS for a period of 24 hours. Starved cells were placed in fresh medium without FBS and stimulated with 0.5 μg/mL of rhCD154 (MegaCD40L; Enzo Life Sciences), in the presence of various concentrations of test compounds. After 48 h, cells were labeled with biotin conjugated monoclonal anti-human CD40 antibody (clone LOB7/6) (LifeSpan BioSciences, Seattle, Wash.), detected with allophycocyanin-eFluor™ 780 streptavidin (eBioscience, San Diego, Calif.), and labeled with monoclonal anti-human HLA-DR antibody APC-Alexa Fluor® 750 (clone LN3) (eBioscience, San Diego, Calif.). All cultivations were carried out for 48 h at 37° C., 90% humidity, and 5% CO2. Stained THP-1 cells were analyzed using a BD LSR II Flow Cytometer (BD Biosciences, San Jose, Calif.). Cell surface markers were quantified in live cells only after gating out 4′,6-diamidino-2-phenylindole (DAPI) labeled cells. All experiments were repeated at least three times.
Data are average±SD in live (DAPI^−) cells from five independent experiments and were analyzed by […] one-way ANOVA followed by Dunnett's multiple comparison test, *p<0.05, **p<0.01, ****p<0.0001 vs. cells+huCD40L.

Assay [2] concerns CD40L-induced AID activation in human B cells. Nature of the assay: Inhibition of CD40L-induced human B-cell function (AID activation, Ds-Red reporter, flow cytometry). Type of assay: cell-based. Conditions: for IC50: Homo sapiens, B-cell; for inhibition of CD40L-induced human B-cell function, AID activation (in words): human B cells, flow cytometry. On the procedure: Activities in blocking CD40L-induced effects were assessed in a human B cell functional assay that quantitates B-cell function by measuring AID activation via a downstream fluorescent marker using flow cytometry. Activation-induced cytidine deaminase (AID) is necessary for both class switch recombination (CSR) and somatic hypermutation (SHM) of Ig genes, which are important for the generation of high-affinity antibodies and robust humoral immune response (see Frasca et al., Methods Mol Biol 1343:107-114 (2015)). AID is encoded by the aicda gene that is exclusively expressed in B cells and is necessary for opening the DNA molecule in the switch (S) regions in order to allow CSR. […] To further validate the activity of the present compounds, an aicda-lentiviral construct containing the promoter and enhancer region of aicda fused to the reporter Ds-Red was generated and used to transfect human B cells isolated from healthy donors. In these cells, regulation of AID expression through CD40-CD40L signaling following incubation at different conditions were evaluated by Ds-Red level assessed via flow cytometry.
B cells were isolated using anti-CD19 Microbeads (Miltenyi Biotech) from PBMC collected from healthy donors, and they were purified using magnetic columns. These B cells were than transfected with an aicda-DsRed vector using a lentiviral protocol, 1.25×10^5 cells/mL of transfected B cells were stimulated with IL-4 at 0.2 μg/mL and CD40 ligand at 0.2 μg/mL in IMDM media with 10% FBS. In addition, various concentrations of candidate compounds diluted in the same media were added along with the described condition above. Also, 1 μg/ml of CpG was used as positive control for activation. After culture for 2 days at 37° C. and 5% CO2, B cells were collected, and AID activation level as represented by the level of Ds-Red expression was assessed by flow cytometry using BD LSRFortessa cell analyzer.
These are important results as they were obtained in freshly isolated human B cells, a model particularly relevant for autoimmune diseases, and they assess effects on function not just proliferation or viability.
In general terms: A flow cytometer gives signals particle by particle.

The mark [3] stands for this setting: IC50, inhibition of the CD40-CD40L interaction, cell-free binding, n=3 independent experiments.
Setting [4] is: 48 h, read-out: IC50, inhibition of CD40L-induced AID activation.

As a reminder, the IC50 is the concentration needed to halve the response being measured.

Structures are written as SMILES. Where two headings read alike, the source gives them in different places.

For `O=C(Nc1ccc(-c2ccc(C(=O)Nc3cccc4cccc(S(=O)(=O)O)c34)cc2)cc1)c1ccc([N+](=O)[O-])cc1` [Compound 21041, 8-[(4′-[4-nitrobenzamido]biphenyl-4-yl-carbonyl)amino]naphthalene-1-sulfonic acid], the 50% inhibitory concentration (IC50) at human CD40-CD40L (setting [3]) is 0.31 µM; on human CD40-CD40L (IC50 CD40, Table 2), 0.3 µM; in assay [1] it was around 10 µM; in assay [2] (setting [4]), 13.2 µM; in assay [2] (read-out: IC50 B Cell) it was 13.2 µM. Also, the “inhibition of human CD40-CD40L binding (in words)” value at human CD40-CD40L (cell-free binding) is “concentration-dependent inhibition”. Also, the “inhibition of CD40L-induced MHC-II expression in THP-1 cells (in words)” value (shortened to “inhibition … in THP-1 cells (in words)”) in assay [1] is reported as “concentration-dependent inhibition”. Further, the “inhibition of CD40L-induced human B-cell function, AID activation (in words)” value (from here on “inhibition … AID activation (in words)”) in assay [2] is on record as “concentration-dependent inhibition”.

Take `COC(=O)c1ccc(C(=O)Nc2ccc(-c3ccc(C(=O)Nc4cccc5cccc(S(=O)(=O)O)c45)cc3)cc2)cc1` [Compound 21045]: the concentration for half-maximal inhibition (IC50) at human CD40-CD40L (Table 2, read-out: IC50 CD40) was 0.1 µM; on human CD40-CD40L (cell-free binding, n=3 independent experiments, read-out: IC50, inhibition of the CD40-CD40L interaction), 0.14 µM; in assay [2] (setting [4]) it was 4.5 µM; in assay [2] (read-out: IC50 B Cell), 4.5 µM. Besides, on human CD40-CD40L (cell-free binding), the “inhibition of human CD40-CD40L binding (in words)” value was “concentration-dependent inhibition”. Besides, the “inhibition … in THP-1 cells (in words)” value in assay [1] is “concentration-dependent inhibition”. Further, the “inhibition … AID activation (in words)” value in assay [2] is on record as “concentration-dependent inhibition”.

In the case of `O=C(Nc1ccc(-c2ccc(C(=O)Nc3ccc(C(=O)O)c4ccccc34)cc2)cc1)c1ccc([N+](=O)[O-])cc1` [Compound 25441], the IC50 at human CD40-CD40L (setting [3]) is 0.36 µM; at human CD40-CD40L (Table 2, read-out: IC50 CD40), 0.4 µM; in assay [1], around 10 µM; in assay [2] (setting [4]), 15.9 µM; in assay [2] (read-out: IC50 B Cell), 15.9 µM. Also, the “inhibition of human CD40-CD40L binding (in words)” value on human CD40-CD40L (cell-free binding) was “concentration-dependent inhibition”. Further, in assay [1], the “inhibition … in THP-1 cells (in words)” value is “concentration-dependent inhibition”. Also, in assay [2], the “inhibition … AID activation (in words)” value is recorded as “concentration-dependent inhibition”.
